What follows are molecules tested against T1, Recombinant human TPH1 (MBP tagged) (Homo sapiens, UniProt P17752) (assay: TPH1 in vitro inhibition assay (kinetic fluorescence)). Conditions: TPH1 Range (TPH1 inhibition IC50).
T1 construct: cloning full length human TPH1 cDNA in to a bacterial pMAL-c5E expression vector; made in house; host or cells: E. coli BL21 (DE3)
T1 sequence (P17752 1-444): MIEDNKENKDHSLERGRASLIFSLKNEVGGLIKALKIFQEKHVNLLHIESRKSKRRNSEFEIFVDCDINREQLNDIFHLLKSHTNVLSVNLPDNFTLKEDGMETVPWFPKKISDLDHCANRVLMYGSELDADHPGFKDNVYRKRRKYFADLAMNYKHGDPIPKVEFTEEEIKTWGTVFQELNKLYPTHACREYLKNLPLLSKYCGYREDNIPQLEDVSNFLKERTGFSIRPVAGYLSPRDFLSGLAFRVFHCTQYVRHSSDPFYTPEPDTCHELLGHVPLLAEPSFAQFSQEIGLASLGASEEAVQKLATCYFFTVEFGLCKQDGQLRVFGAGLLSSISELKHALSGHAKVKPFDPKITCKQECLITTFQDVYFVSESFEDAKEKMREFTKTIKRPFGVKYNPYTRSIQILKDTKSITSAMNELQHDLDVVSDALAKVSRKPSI
Type: biochemical
Outline: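 Final mix: 15 nM MBP-TPH1, 30 μM Trp, 36 μM 6-methyltetrahydropterin, 25 μM ferrous ammonium sulfate, 50 mM MES pH 7.1, 1% DMSO, room temperature.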

Q: `CSc1ccc2cc(-c3ccc([C@@H](Oc4cc(N5CCC6(CC5)CN[C@H](C(=O)O)C6)nc(N)n4)C(F)(F)F)cc3)ccc2n1` [Example 55ai, (S)-8-(2-amino-6-((R)-2,2,2-trifluoro-1-(4-(2-(methylthio)quinolin-6-yl)phenyl)ethoxy)pyrimidin-4-yl)-2,8-diazaspiro[4.5]decane-3-carboxylic acid] was tested. Which IC50 did it give?
A: < 0.05 µM

Same assay, conditions: read-out: TPH1 Range (TPH1 inhibition IC50)

Q: Which IC50 does the source give for `Nc1nc(O[C@H](c2ccc(-c3ccc4[nH]c(=O)oc4c3)cc2)C(F)(F)F)cc(N2CCC3(CC2)CN[C@H](C(=O)O)C3)n1` [Example 55ab, (S)-8-(2-amino-6-((R)-2,2,2-trifluoro-1-(4-(2-oxo-2,3-dihydrobenzo[d]oxazol-6-yl)phenyl)ethoxy)pyrimidin-4-yl)-2,8-diazaspiro[4.5]decane-3-carboxylic acid] here?
A: 0.05 to 0.3 µM

Q: Which IC50 does the source give for `Cc1c[nH]c2ccc(-c3ccc([C@@H](Oc4cc(N5CCC6(CC5)CN[C@H](C(=O)O)C6)nc(N)n4)C(F)(F)F)cc3)cc12` [Example 55ac, (S)-8-(2-amino-6-((R)-2,2,2-trifluoro-1-(4-(3-methyl-1H-indol-5-yl)phenyl)ethoxy)pyrimidin-4-yl)-2,8-diazaspiro[4.5]decane-3-carboxylic acid] here?
A: 0.05 to 0.3 µM

Q: For `COC(=O)c1ccc(-c2ccc([C@@H](Oc3cc(N4CCC5(CC4)CN[C@H](C(=O)O)C5)nc(N)n3)C(F)(F)F)cc2)cc1OC(C)=O` [Example 55ad, (S)-8-(6-((R)-1-(3′-acetoxy-4′-(methoxycarbonyl)-[1,1′-biphenyl]-4-yl)-2,2,2-trifluoroethoxy)-2-aminopyrimidin-4-yl)-2,8-diazaspiro[4.5]decane-3-carboxylic acid], which IC50 is on record?
A: 0.05 to 0.3 µM

Q: `Nc1nc(O[C@H](c2ccc(-c3ccc4ccc(=O)oc4c3)cc2)C(F)(F)F)cc(N2CCC3(CC2)CN[C@H](C(=O)O)C3)n1` [Example 55ae, (S)-8-(2-amino-6-((R)-2,2,2-trifluoro-1-(4-(2-oxo-2H-chromen-7-yl)phenyl)ethoxy)pyrimidin-4-yl)-2,8-diazaspiro[4.5]decane-3-carboxylic acid] was tested. Which IC50 did it give?
A: 0.3 to 3 µM

Q: How did the IC50 turn out when `Cn1cc(-c2ccc([C@@H](Oc3cc(N4CCC5(CC4)CN[C@H](C(=O)O)C5)nc(N)n3)C(F)(F)F)cc2)ccc1=O` [Example 55af, (S)-8-(2-amino-6-((R)-2,2,2-trifluoro-1-(4-(1-methyl-6-oxo-1,6-dihydropyridin-3-yl)phenyl)ethoxy)pyrimidin-4-yl)-2,8-diazaspiro[4.5]decane-3-carboxylic acid] was run?
A: 0.3 to 3 µM

Q: `Nc1nc(O[C@H](c2ccc(-c3ccc(C(=O)O)c(O)c3)cc2)C(F)(F)F)cc(N2CCC3(CC2)CN[C@H](C(=O)O)C3)n1` [Example 55ag, (S)-8-(2-amino-6-((R)-1-(4′-carboxy-3′-hydroxy-[1,1′-biphenyl]-4-yl)-2,2,2-trifluoroethoxy)pyrimidin-4-yl)-2,8-diazaspiro[4.5]decane-3-carboxylic acid] was tested. Which IC50 did it give?
A: 0.05 to 0.3 µM

Q: With `COc1ccc2cc(-c3ccc([C@@H](Oc4cc(N5CCC6(CC5)CN[C@H](C(=O)O)C6)nc(N)n4)C(F)(F)F)cc3)ccc2n1` [Example 55ah, (S)-8-(2-amino-6-((R)-2,2,2-trifluoro-1-(4-(2-methoxyquinolin-6-yl)phenyl)ethoxy)pyrimidin-4-yl)-2,8-diazaspiro[4.5]decane-3-carboxylic acid] as the molecule, how does the IC50 read?
A: 0.05 to 0.3 µM

Q: `CN1C(=O)CCc2cc(-c3ccc([C@@H](Oc4cc(N5CCC6(CC5)CN[C@H](C(=O)O)C6)nc(N)n4)C(F)(F)F)cc3)ccc21` [Example 55aj, (S)-8-(2-amino-6-((R)-2,2,2-trifluoro-1-(4-(1-methyl-2-oxo-1,2,3,4-tetrahydroquinolin-6-yl)phenyl)ethoxy)pyrimidin-4-yl)-2,8-diazaspiro[4.5]decane-3-carboxylic acid] was tested. Which IC50 did it give?
A: 0.05 to 0.3 µM

Q: For `COc1cc(F)cc(-c2ccc([C@@H](Oc3cc(N4CCC5(CC4)CN[C@H](C(=O)O)C5)nc(N)n3)C(F)(F)F)cc2)c1` [Example 55ao, (S)-8-(2-amino-6-((R)-2,2,2-trifluoro-1-(3′-fluoro-5′-methoxy-[1,1′-biphenyl]-4-yl)ethoxy)pyrimidin-4-yl)-2,8-diazaspiro[4.5]decane-3-carboxylic acid], which IC50 is on record?
A: 0.05 to 0.3 µM

Q: Which IC50 does the source give for `Nc1nc(O[C@H](c2ccc(-c3cc(F)cc(F)c3)cc2)C(F)(F)F)cc(N2CCC3(CC2)CN[C@H](C(=O)O)C3)n1` [Example 55ap, (S)-8-(2-amino-6-((R)-1-(3′,5′-difluoro-[1,1′-biphenyl]-4-yl)-2,2,2-trifluoroethoxy)pyrimidin-4-yl)-2,8-diazaspiro[4.5]decane-3-carboxylic acid] here?
A: 0.05 to 0.3 µM

Q: For `COc1ccc(-c2ccc([C@@H](Oc3cc(N4CCC5(CC4)CN[C@H](C(=O)O)C5)nc(N)n3)C(F)(F)F)cc2)cc1` [Example 55aq, (S)-8-(2-amino-6-((R)-2,2,2-trifluoro-1-(4′-methoxy-[1,1′-biphenyl]-4-yl)ethoxy)pyrimidin-4-yl)-2,8-diazaspiro[4.5]decane-3-carboxylic acid], which IC50 is on record?
A: 0.05 to 0.3 µM

Q: For `COc1ccccc1-c1ccc([C@@H](Oc2cc(N3CCC4(CC3)CN[C@H](C(=O)O)C4)nc(N)n2)C(F)(F)F)cc1` [Example 55ar, (S)-8-(2-amino-6-((R)-2,2,2-trifluoro-1-(2′-methoxy-[1,1′-biphenyl]-4-yl)ethoxy)pyrimidin-4-yl)-2,8-diazaspiro[4.5]decane-3-carboxylic acid], which IC50 is on record?
A: 0.05 to 0.3 µM

Q: For `Nc1nc(O[C@H](c2ccc(-c3cccc(C(F)(F)F)c3)cc2)C(F)(F)F)cc(N2CCC3(CC2)CN[C@H](C(=O)O)C3)n1` [Example 55as, (S)-8-(2-amino-6-((R)-2,2,2-trifluoro-1-(3′-(trifluoromethyl)-[1,1′-biphenyl]-4-yl)ethoxy)pyrimidin-4-yl)-2,8-diazaspiro[4.5]decane-3-carboxylic acid], which IC50 is on record?
A: 0.05 to 0.3 µM

Q: For `Nc1nc(O[C@H](c2ccc(-c3cccc(OC(F)(F)F)c3)cc2)C(F)(F)F)cc(N2CCC3(CC2)CN[C@H](C(=O)O)C3)n1` [Example 55at, (S)-8-(2-amino-6-((R)-2,2,2-trifluoro-1-(3′-(trifluoromethoxy)-[1,1′-biphenyl]-4-yl)ethoxy)pyrimidin-4-yl)-2,8-diazaspiro[4.5]decane-3-carboxylic acid], which IC50 is on record?
A: 0.05 to 0.3 µM

Q: With `CCOc1cccc(-c2ccc([C@@H](Oc3cc(N4CCC5(CC4)CN[C@H](C(=O)O)C5)nc(N)n3)C(F)(F)F)cc2)c1` [Example 55au, (S)-8-(2-amino-6-((R)-1-(3′-ethoxy-[1,1′-biphenyl]-4-yl)-2,2,2-trifluoroethoxy)pyrimidin-4-yl)-2,8-diazaspiro[4.5]decane-3-carboxylic acid] as the molecule, how does the IC50 read?
A: 0.05 to 0.3 µM

Q: With `CC(C)Oc1cccc(-c2ccc([C@@H](Oc3cc(N4CCC5(CC4)CN[C@H](C(=O)O)C5)nc(N)n3)C(F)(F)F)cc2)c1` [Example 55av, (S)-8-(2-amino-6-((R)-2,2,2-trifluoro-1-(3′-isopropoxy-[1,1′-biphenyl]-4-yl)ethoxy)pyrimidin-4-yl)-2,8-diazaspiro[4.5]decane-3-carboxylic acid] as the molecule, how does the IC50 read?
A: 0.05 to 0.3 µM

Q: Which IC50 does the source give for `Nc1nc(O[C@H](c2ccc(-c3cccnc3)cc2)C(F)(F)F)cc(N2CCC3(CC2)CN[C@H](C(=O)O)C3)n1` [Example 55aw, (S)-8-(2-amino-6-((R)-2,2,2-trifluoro-1-(4-(pyridin-3-yl)phenyl)ethoxy)pyrimidin-4-yl)-2,8-diazaspiro[4.5]decane-3-carboxylic acid] here?
A: 0.3 to 3 µM

Reference: US11759462B2, “Spirocyclic compounds as tryptophan hydroxylase inhibitors” (priority 2013, dated 2023)
